This note sets out measurements from ChEMBL document CHEMBL5247580, “Discovery of novel AdipoRon analogues as potent anti-inflammatory agents against nonalcoholic steatohepatitis” (Eur J Med Chem, 2022).

pIC50: −log10 of the molar value. Calls of active or inactive are those of the source. The calls are words filed in the database; no cut-off is given here.

In experiment [1] the test system is RAW264.7. Nature of the experiment: Anti-inflammatory activity in LPS induced mouse RAW264.7 cells assessed as inhibition of IL-1beta mRNA expression incubated for 12 hrs followed by LPS stimulation and measured after 6 hrs by RT-PCR method. The format is functional, cell-based.
Experiment [2] has as its system RAW264.7. Nature of the experiment: Cytotoxicity against mouse RAW264.7 cells at 50 uM by MTT assay relative to control. The format is functional. (Formazan colour is commonly taken as a measure of viable cells.)
The subject of experiment [3] is RAW264.7. Nature of the experiment: Anti-inflammatory activity in LPS induced mouse RAW264.7 cells assessed as inhibition of IL-1beta mRNA expression at 10 uM incubated for 12 hrs followed by LPS stimulation and measured after 6 hrs by RT-PCR method. To be noted: time 18.0 hrs. The format is functional, cell-based.
Experiment [4] has as its system RAW264.7. Nature of the experiment: Anti-inflammatory activity in LPS induced mouse RAW264.7 cells assessed as inhibition of IL-6 mRNA expression at 10 uM incubated for 12 hrs followed by LPS stimulation and measured after 6 hrs by RT-PCR method. Type of experiment: functional, cell-based. To be noted: time 18.0 hrs.
Experiment [5] has as its system Mus musculus. Nature of the experiment: Reduction in hepatic steatosis in HFCFD-induced NASH C57BL/6JNifdc mouse model assessed as decrease in triglycerides at 25 to 50 mg/kg, po administered once daily for 4 weeks by Oil red-O staining based assay. To be noted: dose 25-50 mg/kg. Type of experiment: functional, organism-based.
Experiment [6] concerns Mus musculus. Briefly: Anti-fibrosis effect in HFCFD-induced NASH C57BL/6JNifdc mouse model assessed as decrease in collagen accumulation at 25 to 50 mg/kg, po administered once daily for 4 weeks by Sirius red staining based analysis. Type of experiment: functional, organism-based. To be noted: dose 25-50 mg/kg.
The target in experiment [7] is T1, 5'-AMP-activated protein kinase (Mus musculus) (UniProt Q5EG47+Q8BRK8+Q6PAM0+O54950+Q91WG5+Q9R078+Q8BGM7). Briefly: Agonist activity at AMPK in mouse C2C12 cells assessed as increase in PGC-1alpha mRNA level. To be noted: filed as agonist, dose <= 30.0 µM. The format is cell-based.
In experiment [8] the target is T1, 5'-AMP-activated protein kinase (Mus musculus). Briefly: Agonist activity at AMPK in mouse C2C12 cells assessed as stimulation of AMPK phosphorylation at upto 30 uM. The format is cell-based. To be noted: filed as agonist.
In experiment [9] the test system is Mus musculus. Nature of the experiment: Reduction in hepatic steatosis in HFCFD-induced NASH po dosed C57BL/6JNifdc mouse model assessed as decrease in hepatocellular vacuolization administered once daily for 4 weeks by H and E staining based analysis. The format is functional, organism-based. To be noted: dose 25-50 mg/kg.
In experiment [10] the target is T1, 5'-AMP-activated protein kinase (Mus musculus). Nature of the experiment: Agonist activity at AMPK in mouse RAW264.7 cells assessed as stimulation of AMPK phosphorylation at upto 10 uM. The format is cell-based. To be noted: filed as agonist.
For experiment [11], the system named is Mus musculus. Briefly: Reduction in hepatic steatosis in HFCFD-induced NASH C57BL/6JNifdc mouse model assessed as reduction in liver/body weight ratio at 50 mg/kg, po administered once daily for 4 weeks. Type of experiment: functional, organism-based.
For experiment [12], the system named is Mus musculus. Briefly: Antiinflammatory activity in HFCFD-induced NASH po dosed C57BL/6JNifdc mouse model assessed as downregulation of TNFalpha expression administered once daily for 4 weeks. Type of experiment: functional, organism-based. To be noted: dose 25-50 mg/kg.
The test system of experiment [13] is Mus musculus. Nature of the experiment: Antiinflammatory activity in HFCFD-induced NASH po dosed C57BL/6JNifdc mouse model assessed as downregulation of CCL4 expression administered once daily for 4 weeks. To be noted: dose 25-50 mg/kg. Type of experiment: functional, organism-based.
The subject of experiment [14] is Mus musculus. Nature of the experiment: Anti-fibrosis effect in HFCFD-induced NASH C57BL/6JNifdc mouse model assessed as downregulation of Col3a1 mRNA level at 25 to 50 mg/kg, po administered once daily for 4 weeks. To be noted: dose 25-50 mg/kg. The format is functional, organism-based.
The subject of experiment [15] is Mus musculus. Nature of the experiment: Reduction in hepatic steatosis in HFCFD-induced NASH C57BL/6JNifdc mouse model assessed as reduction in liver weight at 50 mg/kg, po administered once daily for 4 weeks. Type of experiment: functional, organism-based.
In experiment [16] the test system is Mus musculus. Nature of the experiment: Antiinflammatory activity in HFCFD-induced NASH po dosed C57BL/6JNifdc mouse model assessed as downregulation of IL-1beta expression administered once daily for 4 weeks. The format is functional, organism-based. To be noted: dose 25-50 mg/kg.
In experiment [17] the test system is Mus musculus. Briefly: Reduction in hepatic steatosis in HFCFD-induced NASH C57BL/6JNifdc mouse model assessed as decrease in fatty acids at 25 to 50 mg/kg, po administered once daily for 4 weeks by Oil red-O staining based assay. Type of experiment: functional, organism-based. To be noted: dose 25-50 mg/kg.
Experiment [18] has as its system Mus musculus. Briefly: Anti-fibrosis effect in HFCFD-induced NASH C57BL/6JNifdc mouse model assessed as downregulation of Col1a1 mRNA level at 25 to 50 mg/kg, po administered once daily for 4 weeks. Type of experiment: functional, organism-based. To be noted: dose 25-50 mg/kg.
Experiment [19] deals with Mus musculus. Nature of the experiment: Antiinflammatory activity in HFCFD-induced NASH C57BL/6JNifdc mouse model assessed as decrease in ALT serum level at 50 mg/kg, po administered once daily for 4 weeks by automated biochemical analyzer. The format is functional, organism-based.
The test system of experiment [20] is Mus musculus. Briefly: Antiinflammatory activity in HFCFD-induced NASH C57BL/6JNifdc mouse model assessed as change inflammatory infiltration at 50 mg/kg, po administered once daily for 4 weeks by H and E staining based analysis. Type of experiment: functional, organism-based.
Experiment [21] deals with Mus musculus. Briefly: Reduction in hepatic steatosis in HFCFD-induced NASH C57BL/6JNifdc mouse model assessed as decrease in neutral fat at 25 to 50 mg/kg, po administered once daily for 4 weeks by Oil red-O staining based assay. To be noted: dose 25-50 mg/kg. Type of experiment: functional, organism-based.
The subject of experiment [22] is Mus musculus. Nature of the experiment: Antiinflammatory activity in HFCFD-induced NASH po dosed C57BL/6JNifdc mouse model assessed as downregulation of CCL5 expression administered once daily for 4 weeks. The format is functional, organism-based. To be noted: dose 25-50 mg/kg.
The test system of experiment [23] is Mus musculus. Briefly: Antiinflammatory activity in NASH C57BL/6JNifdc po dosed mouse model assessed as decrease in NF-kappaB p65 phosphorylation level administered once daily for 4 weeks by Western blot analysis. Type of experiment: functional, organism-based. To be noted: dose 25-50 mg/kg.
In experiment [24] the test system is Mus musculus. Briefly: Antiinflammatory activity in HFCFD-induced NASH C57BL/6JNifdc mouse model assessed as decrease in AST serum level at 50 mg/kg, po administered once daily for 4 weeks by automated biochemical analyzer. The format is functional, organism-based.
The subject of experiment [25] is Mus musculus. Briefly: Reduction in hepatic steatosis in HFCFD-induced NASH po dosed C57BL/6JNifdc mouse model assessed as decrease in lipid droplets administered once daily for 4 weeks by H and E staining based analysis. Type of experiment: functional, organism-based. To be noted: dose 25-50 mg/kg.
In experiment [26] the test system is Mus musculus. Briefly: Antiinflammatory activity in HFCFD-induced NASH po dosed C57BL/6JNifdc mouse model assessed as downregulation of IL-12beta expression administered once daily for 4 weeks. Type of experiment: functional, organism-based. To be noted: dose 25-50 mg/kg.
The test system of experiment [27] is RAW264.7. Briefly: Antiinflammatory activity in mouse RAW264.7 cells assessed as downregulation of NF-kappaB p65 phosphorylation level at upto 10 uM by Western blot analysis. The format is functional, cell-based. Background: In western blotting, separated proteins are transferred to a membrane and probed.
Experiment [28] has as its system Mus musculus. Nature of the experiment: Anti-fibrosis effect in HFCFD-induced NASH C57BL/6JNifdc mouse model assessed as downregulation of alpha-SMA mRNA level at 25 to 50 mg/kg, po administered once daily for 4 weeks. To be noted: dose 25-50 mg/kg. Type of experiment: functional, organism-based.
Experiment [29] has as its system Mus musculus. Nature of the experiment: Antiinflammatory activity in HFCFD-induced NASH po dosed C57BL/6JNifdc mouse model assessed as downregulation of CCL2 expression administered once daily for 4 weeks. The format is functional, organism-based. To be noted: dose 25-50 mg/kg.

For the molecule `COc1ccc(CN2CCC(NC(=O)C(C)(C)CCCOc3cc(C)ccc3C)CC2)cc1`, the pIC50 in the experiment on RAW264.7 [1] is 5.38. In the experiment with RAW264.7 [2], this molecule gave an Activity of 7.19%.

For `Cc1ccc(C)c(OCCCC(C)(C)C(=O)NC2CCN(Cc3ccccc3)CC2)c1`, in the experiment with RAW264.7 [3], the outcome was Active.

Take `COc1ccc(CN2CCC(NC(=O)COc3ccc(C(=O)c4ccc(Cl)cc4)cc3)CC2)cc1`: the pIC50 in the experiment with RAW264.7 [1] was 4.99. The Activity in the experiment with RAW264.7 [2] was found to be 3.33%.

Consider `Cc1ccc(C)c(OCCCC(C)(C)C(=O)NC2CCN(Cc3ccc(F)cc3)CC2)c1`, for which the pIC50 in the experiment on RAW264.7 [1] was 5.34. Further, the Activity in the experiment on RAW264.7 [2] is given as 78.02%.

On to `O=C(COc1ccc(C(=O)c2ccccc2)cc1)NC1CCN(Cc2ccccc2)CC1`, for which, in the experiment with RAW264.7 [1], the pIC50 is 4.82. The outcome in the experiment on RAW264.7 [3] and in the experiment on RAW264.7 [4] was Active. Also, the Activity in the experiment on RAW264.7 [2] was 96.32%.

Regarding `CC(C)(Oc1ccc(C(=O)c2ccc(Cl)cc2)cc1)C(=O)NC1CCN(Cc2ccc(OC(F)(F)F)cc2)CC1`, the pIC50 with RAW264.7 [1] is 5.01. In addition, the Activity with RAW264.7 [2] is 88.34%.

Regarding `COc1ccc(CN2CCC(NC(=O)C(C)(C)Oc3ccc(C(=O)c4ccc(Cl)cc4)cc3)CC2)cc1`, the pIC50 with RAW264.7 [1] is 5.34. Besides, the Activity in the experiment on RAW264.7 [2] is on record as 4.08%.

In the case of `CC(C)(Oc1ccc(C(=O)c2ccc(Cl)cc2)cc1)C(=O)NC1CCN(Cc2ccccc2)CC1`, the outcome in the experiment on RAW264.7 [3] was Active.

As to `Cc1ccc(CN2CCC(NC(=O)C(C)(C)Oc3ccc(C(=O)c4ccc(Cl)cc4)cc3)CC2)cc1`, the pIC50 with RAW264.7 [1] was 5.07. In the experiment with RAW264.7 [2], this molecule registered an Activity of 4.64%.

For the molecule `CC(C)(Oc1ccc(Cl)cc1)C(=O)NC1CCN(Cc2ccccc2)CC1`, the result with RAW264.7 [3] was inactive.

Turning to `Cc1ccc(C)c(OCCCC(C)(C)C(=O)NC2CCN(Cc3ccc(C(F)(F)F)cc3)CC2)c1`, the pIC50 in the experiment with RAW264.7 [1] is 5.29. Moreover, the Activity with RAW264.7 [2] amounted to 93.12%.

Take `CC(C)(Oc1ccc(C(=O)c2ccc(Cl)cc2)cc1)C(=O)NC1CCN(Cc2ccc(C(F)(F)F)cc2)CC1`: the outcome (in the experiment with Mus musculus [5]; in the experiment on Mus musculus [6]; in [8]; in experiment [10]; in the experiment with Mus musculus [11]; with Mus musculus [14]) was Active. Also, the result with Mus musculus [15], in the experiment with Mus musculus [17], with Mus musculus [18], with Mus musculus [19], in the experiment with Mus musculus [20] and in the experiment with Mus musculus [21] was Active. In addition, the result with Mus musculus [24], in the experiment with RAW264.7 [27] and in the experiment on Mus musculus [28] was Active. Also, the Activity entry (in [7]; with Mus musculus [9]; in the experiment with Mus musculus [12]; with Mus musculus [13]; with Mus musculus [16]; in the experiment with Mus musculus [22]) was “Dose-Dependent Effect” throughout. Moreover, the Activity result is “Dose-Dependent Effect” with Mus musculus [23]; “Dose-Dependent Effect” in the experiment with Mus musculus [25]; 98.46% in the experiment on RAW264.7 [2]; “Dose-Dependent Effect” in the experiment on Mus musculus [26]; “Dose-Dependent Effect” in the experiment with Mus musculus [29]. Moreover, the pIC50 with RAW264.7 [1] is 5.36.

Take `Cc1ccc(CN2CCC(NC(=O)C(C)(C)CCCOc3cc(C)ccc3C)CC2)cc1`: the pIC50 with RAW264.7 [1] was 5.18. This molecule also showed an Activity in the experiment with RAW264.7 [2] of 42.67%.

Take `Cc1ccc(C)c(OCCCC(C)(C)C(=O)NC2CCN(Cc3ccc(Cl)cc3)CC2)c1`: the pIC50 in the experiment on RAW264.7 [1] was 4.83. The Activity in the experiment on RAW264.7 [2] turned out to be 68.99%.

For orientation: pIC50 means the IC50 on a negative log10 scale, so that one unit is a factor of ten.
